From ChEMBL document CHEMBL1156812, “Novel synthesis of the hexahydroimidazo[1,5b]isoquinoline scaffold: application to the synthesis of glucocorticoid receptor modulators” (J Med Chem, 2010)

Assays:
[1] = molecular target: T1, Progesterone receptor (Homo sapiens, UniProt P06401); experiment: Binding affinity to progesterone receptor
T1 sequence (P06401 whole entry): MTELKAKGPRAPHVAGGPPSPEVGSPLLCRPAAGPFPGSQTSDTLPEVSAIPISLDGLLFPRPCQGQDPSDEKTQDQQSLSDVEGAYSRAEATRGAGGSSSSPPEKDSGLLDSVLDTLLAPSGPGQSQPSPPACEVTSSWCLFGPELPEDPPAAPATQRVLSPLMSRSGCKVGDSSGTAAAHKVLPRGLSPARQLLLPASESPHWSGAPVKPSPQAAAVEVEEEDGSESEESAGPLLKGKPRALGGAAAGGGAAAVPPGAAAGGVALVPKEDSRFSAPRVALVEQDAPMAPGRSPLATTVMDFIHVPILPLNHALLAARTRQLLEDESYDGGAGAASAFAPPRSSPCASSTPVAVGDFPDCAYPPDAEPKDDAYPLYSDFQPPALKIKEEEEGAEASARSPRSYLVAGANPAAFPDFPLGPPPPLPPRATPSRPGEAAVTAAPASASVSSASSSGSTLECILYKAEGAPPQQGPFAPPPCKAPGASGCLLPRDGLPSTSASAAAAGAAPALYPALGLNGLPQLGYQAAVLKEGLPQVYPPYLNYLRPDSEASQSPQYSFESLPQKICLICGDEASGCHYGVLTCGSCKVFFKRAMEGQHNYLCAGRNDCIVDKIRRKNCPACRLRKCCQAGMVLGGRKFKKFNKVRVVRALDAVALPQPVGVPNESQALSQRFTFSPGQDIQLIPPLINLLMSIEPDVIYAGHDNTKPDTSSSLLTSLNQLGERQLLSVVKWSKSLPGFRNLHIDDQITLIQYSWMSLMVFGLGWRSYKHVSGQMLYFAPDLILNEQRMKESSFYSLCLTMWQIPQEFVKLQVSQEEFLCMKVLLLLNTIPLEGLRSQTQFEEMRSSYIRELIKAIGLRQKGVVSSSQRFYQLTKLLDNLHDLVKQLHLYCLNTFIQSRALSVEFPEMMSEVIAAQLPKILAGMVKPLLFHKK

[2] = molecular target: T2, Glucocorticoid receptor (Homo sapiens, UniProt P04150); experiment: Displacement of GS-red from human glucocorticoid receptor by fluorescent polarization assay
T2 sequence (P04150 whole entry): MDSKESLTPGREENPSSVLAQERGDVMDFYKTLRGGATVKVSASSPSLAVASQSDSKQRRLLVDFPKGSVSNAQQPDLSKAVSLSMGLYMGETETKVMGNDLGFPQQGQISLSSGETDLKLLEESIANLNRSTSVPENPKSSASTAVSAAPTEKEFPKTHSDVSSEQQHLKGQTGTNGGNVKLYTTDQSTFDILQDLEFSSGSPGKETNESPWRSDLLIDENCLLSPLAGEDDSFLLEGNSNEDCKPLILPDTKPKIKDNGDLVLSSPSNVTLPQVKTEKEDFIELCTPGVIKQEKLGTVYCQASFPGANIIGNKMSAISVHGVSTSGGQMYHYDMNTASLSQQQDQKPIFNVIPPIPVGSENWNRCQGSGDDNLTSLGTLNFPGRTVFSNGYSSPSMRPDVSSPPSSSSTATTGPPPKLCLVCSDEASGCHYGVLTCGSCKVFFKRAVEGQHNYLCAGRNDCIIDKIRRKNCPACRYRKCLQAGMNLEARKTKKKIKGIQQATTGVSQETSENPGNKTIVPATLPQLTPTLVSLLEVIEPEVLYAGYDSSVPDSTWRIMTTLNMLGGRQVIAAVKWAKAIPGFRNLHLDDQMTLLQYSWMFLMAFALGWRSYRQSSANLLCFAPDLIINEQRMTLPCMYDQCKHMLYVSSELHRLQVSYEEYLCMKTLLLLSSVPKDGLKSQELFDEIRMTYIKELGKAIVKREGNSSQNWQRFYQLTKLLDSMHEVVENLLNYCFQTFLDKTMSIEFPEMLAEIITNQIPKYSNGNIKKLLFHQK

[3] = molecular target: T3, Androgen receptor (Homo sapiens, UniProt P10275); experiment: Binding affinity to androgen receptor
T3 sequence (P10275 whole entry): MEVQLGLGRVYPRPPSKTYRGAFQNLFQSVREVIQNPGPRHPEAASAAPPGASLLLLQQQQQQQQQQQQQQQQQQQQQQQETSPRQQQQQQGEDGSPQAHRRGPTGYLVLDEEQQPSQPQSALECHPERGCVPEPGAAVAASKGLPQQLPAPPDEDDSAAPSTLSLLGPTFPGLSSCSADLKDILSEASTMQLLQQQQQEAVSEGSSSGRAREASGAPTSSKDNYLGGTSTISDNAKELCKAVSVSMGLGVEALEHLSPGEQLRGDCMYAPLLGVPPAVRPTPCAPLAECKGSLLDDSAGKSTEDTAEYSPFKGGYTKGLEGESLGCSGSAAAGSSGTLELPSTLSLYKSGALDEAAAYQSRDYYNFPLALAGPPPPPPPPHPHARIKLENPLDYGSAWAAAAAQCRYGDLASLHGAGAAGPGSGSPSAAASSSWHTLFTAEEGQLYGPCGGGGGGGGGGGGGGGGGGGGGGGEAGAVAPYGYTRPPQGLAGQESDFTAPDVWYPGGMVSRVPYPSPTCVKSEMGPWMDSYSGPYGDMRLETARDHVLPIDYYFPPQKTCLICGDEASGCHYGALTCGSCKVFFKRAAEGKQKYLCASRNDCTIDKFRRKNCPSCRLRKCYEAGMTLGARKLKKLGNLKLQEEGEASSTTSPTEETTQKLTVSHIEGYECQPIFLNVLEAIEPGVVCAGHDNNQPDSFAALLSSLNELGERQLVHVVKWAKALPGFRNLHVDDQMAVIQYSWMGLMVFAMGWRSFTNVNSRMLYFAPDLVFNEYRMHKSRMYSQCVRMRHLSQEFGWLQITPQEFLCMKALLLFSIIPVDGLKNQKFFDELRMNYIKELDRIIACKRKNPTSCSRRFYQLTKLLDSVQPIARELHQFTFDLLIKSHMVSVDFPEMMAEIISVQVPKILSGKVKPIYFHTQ

[4] = molecular target: T2, Glucocorticoid receptor; experiment: Transrepression activity at glucocorticoid receptor expressed in human A549 cells assessed as inhibition of IL-1-beta-induced NF-kappaB dependent E-selection promoter activation after 6 hrs by luciferase reporter gene based ELAM assay; type: cell-based
[5] = molecular target: T2, Glucocorticoid receptor; experiment: Transactivation of GAL-4 tagged glucocorticoid receptor ligand binding domain expressed in human HeLa cells assessed as NP1 activation by luciferase reporter gene assay; type: cell-based
[6] = molecular target: T2, Glucocorticoid receptor; experiment: Transrepression activity at glucocorticoid receptor expressed in human A549 cells assessed as inhibition of PMA-induced AP1 activity after 6 hrs by luciferase reporter gene assay; type: cell-based
[7] = Metabolic stability in rat liver microsomes assessed as compound remaining at 3 uM after 10 mins; type: ADME, Microsome; conditions: read-out: Stability
[8] = Metabolic stability in human liver microsomes assessed as compound remaining at 3 uM after 10 mins; type: ADME, Microsome; conditions: read-out: Stability
[9] = Metabolic stability in mouse liver microsomes assessed as compound remaining at 3 uM after 10 mins; type: ADME, Microsome; conditions: read-out: Stability

Ki [1] | Ki [2] | IC50 [3] | EC50 [4] | EC50 [5] | EC50 [6] | remaining at 10 min, 3 µM [7] | remaining at 10 min, 3 µM [8] | remaining at 10 min, 3 µM [9] | SMILES
0.238 µM | 0.002 µM | > 4 µM | 0.019 µM | 0.697 µM | 0.0075 µM | 51% | 56% | 73% | C[C@]12Cn3cnc(-c4ccc(F)cc4)c3C=C1CCC[C@@H]2[C@](C)(O)c1ccc(Cl)cc1
0.132 µM | 0.002 µM | > 4 µM | 0.03 µM | 0.38 µM | 0.029 µM | 2% | 3% | 21% | Cc1ccsc1[C@@](C)(O)[C@H]1CCCC2=Cc3c(-c4ccc(F)cc4)ncn3C[C@@]21C

SMILES | Ki [1] | Ki [2] | IC50 [3] | EC50 [4] | EC50 [5] | EC50 [6] | remaining at 10 min, 3 µM [7] | remaining at 10 min, 3 µM [8] | remaining at 10 min, 3 µM [9]
C=CC[C@@](C)(O)[C@H]1CCCC2=Cc3c(-c4ccc(F)cc4)ncn3C[C@@]21C | 1.81 µM | 0.0043 µM | > 4 µM | 0.079 µM | > 5 µM | 0.057 µM |  |  | 
